The results in this text go back to ChEMBL document CHEMBL4334453, “Callistemonols A and B, Potent Antimicrobial Acylphloroglucinol Derivatives with Unusual Carbon Skeletons from Callistemon viminalis” (2019).

The subject of assay [1] is Staphylococcus aureus. Put plainly: Disruption of membrane integrity in methicillin-reisitant Staphylococcus aureus JCSC 4744 at 10 ug/ml measured within 2 mins by SYTOX-greeen-based fluorescence assay. The class given is functional, organism-based.
Assay [2] relates to Staphylococcus aureus. Put plainly: Bactericidal activity against methicillin-resistant Staphylococcus aureus JCSC 4744 assessed as reduction in cell survival by measuring colony forming units at MIC measured within 4 hrs by time-kill assay. The class given is functional.
The test system of assay [3] is Staphylococcus aureus. Put plainly: Antibacterial activity against Staphylococcus aureus CMCC 26003 incubated overnight by CLSI protocol based microdilution assay.
Assay [4] concerns Staphylococcus aureus. As to the kind of experiment: Antibacterial activity against methicillin-resistant Staphylococcus aureus JCSC 4744 incubated overnight by CLSI protocol based microdilution assay. In kind it is functional.
Another assay relates to Escherichia coli. Put plainly: Antibacterial activity against Escherichia coli ATCC 8739 incubated overnight by CLSI protocol based microdilution assay. The class given is functional.
Assay [5] relates to Bacillus cereus. Put plainly: Antibacterial activity against Bacillus cereus CMCC 63302 incubated overnight by CLSI protocol based microdilution assay. The class given is functional.
In assay [6] the test system is Staphylococcus aureus. As to the kind of experiment: Bactericidal activity against methicillin-resistant Staphylococcus aureus JCSC 4469 measured after 24 hrs by sub-culturing. The following applies: JCSC 4469, 24 h. The class given is functional.
For assay [7], the system named is Staphylococcus aureus. As to the kind of experiment: Bactericidal activity against methicillin-resistant Staphylococcus aureus JCSC 4744 measured after 24 hrs by sub-culturing. The class given is functional. The following applies: JCSC 4744, 24 h.
Assay [8] has as its system Staphylococcus aureus. Put plainly: Bactericidal activity against methicillin-resistant Staphylococcus aureus JCSC 4744 assessed as reduction in cell survival by measuring colony forming units at MIC measured within 4 hrs by time-kill assay relative to control. The class given is functional.
Assay [9] has as its system Staphylococcus aureus. Put plainly: Bactericidal activity against Staphylococcus aureus CMCC 26003 measured after 24 hrs by sub-culturing. Conditions: CMCC 26003, 24 h.
For assay [10], the system named is Staphylococcus aureus. Put plainly: Antibacterial activity against methicillin-resistant Staphylococcus aureus JCSC 4469 incubated overnight by CLSI protocol based microdilution assay. The class given is functional.
In assay [11] the test system is Staphylococcus aureus. Put plainly: Induction of cell lysis in methicillin-resistant Staphylococcus aureus JCSC 4744 assessed as formation of membrane disruption at 8 fold MIC after 4 hrs by scanning electron microscopy. The class given is functional, organism-based.
Assay [12] concerns Staphylococcus aureus. As to the kind of experiment: Induction of cell lysis in methicillin-resistant Staphylococcus aureus JCSC 4744 assessed as formation of membrane fissures at 8 fold MIC after 4 hrs by scanning electron microscopy. The class given is functional, organism-based.
For assay [13], the system named is Bacillus cereus. Put plainly: Bactericidal activity against Bacillus cereus CMCC 63302 measured after 24 hrs by sub-culturing. In kind it is functional. The following applies: CMCC 63302, 24 h.
For assay [14], the system named is Staphylococcus aureus. As to the kind of experiment: Bactericidal activity against methicillin-resistant Staphylococcus aureus JCSC 4744 assessed as reduction in cell survival by measuring colony forming units at MIC after 24 hrs by time-kill assay relative to control. The class given is functional.
Assay [15] has as its system Staphylococcus aureus. As to the kind of experiment: Induction of cytoplasmic membrane depolarization in methicillin-resistant Staphylococcus aureus JCSC 4744 at 0.5 to 8 fold MIC by DiSC3-5 dye-based fluorescence assay. In kind it is functional, organism-based.
Assay [16] deals with Staphylococcus aureus. As to the kind of experiment: Disruption of membrane integrity in methicillin-reisitant Staphylococcus aureus JCSC 4744 measured after 4 hrs by SYTOX-greeen-based fluorescence assay. The class given is functional, organism-based.
For assay [17], the system named is Staphylococcus aureus. Put plainly: Bactericidal activity against methicillin-resistant Staphylococcus aureus JCSC 4744 assessed as reduction in cell survival at 8 fold MIC measured after 24 hrs by time-kill assay. In kind it is functional, organism-based.

≈ marks a conversion by molar mass, not a printed value. Calls of active or inactive are those of the source. The calls are words filed in the database; no cut-off is given here.

As for `CC[C@H](C)[C@H](NC(=O)CN)C(=O)NCC(=O)N[C@@H](C)C(=O)N[C@H](C(=O)N[C@@H](CC(C)C)C(=O)N[C@@H](CCCCN)C(=O)N[C@H](C(=O)N[C@@H](CC(C)C)C(=O)N[C@H](C(=O)N[C@H](C(=O)NCC(=O)N[C@@H](CC(C)C)C(=O)N1CCC[C@H]1C(=O)N[C@@H](C)C(=O)N[C@@H](CC(C)C)C(=O)N[C@H](C(=O)N[C@@H](CO)C(=O)N[C@@H](Cc1c[nH]c2ccccc12)C(=O)N[C@H](C(=O)N[C@@H](CCCCN)C(=O)N[C@@H](CCCNC(=N)N)C(=O)N[C@@H](CCCCN)C(=O)N[C@@H](CCCNC(=N)N)C(=O)N[C@@H](CCC(N)=O)C(=O)N[C@@H](CCC(N)=O)C(N)=O)[C@@H](C)CC)[C@@H](C)CC)[C@@H](C)O)[C@@H](C)O)C(C)C)C(C)C`, the result with Staphylococcus aureus [1] was Active.

On to `CN[C@H](CC(C)C)C(=O)N[C@H]1C(=O)N[C@@H](CC(N)=O)C(=O)N[C@H]2C(=O)N[C@H]3C(=O)N[C@H](C(=O)N[C@H](C(=O)O)c4cc(O)cc(O)c4-c4cc3ccc4O)[C@H](O)c3ccc(c(Cl)c3)Oc3cc2cc(c3O[C@@H]2O[C@H](CO)[C@@H](O)[C@H](O)[C@H]2O[C@H]2C[C@](C)(N)[C@H](O)[C@H](C)O2)Oc2ccc(cc2Cl)[C@H]1O` [VANCOMYCIN], for which the Activity in the assay with Staphylococcus aureus [2] was determined as 2 log10CFU/ml. The MIC worked out at 1.56 µg/mL (≈ 1.08 µM) against Staphylococcus aureus [3]; 0.78 µg/mL (≈ 0.538 µM) against Staphylococcus aureus [4]; 50 µg/mL (≈ 34.5 µM) in the assay on Escherichia coli; 50 µg/mL (≈ 34.5 µM) with Bacillus cereus [5]; 0.78 µg/mL (≈ 0.538 µM) in the assay on Staphylococcus aureus [10]. Besides, the MBC in the assay on Staphylococcus aureus [6], against Staphylococcus aureus [7] and against Staphylococcus aureus [9] was 2.5 µg/mL (≈ 1.73 µM) in each case. The “inhibition (INH)” value in the assay with Staphylococcus aureus [8] is 99%.

With `COC1=C(C(=O)CC(C)C)C(=O)C(O)C1(C)C` (centres undefined), in the assay on Staphylococcus aureus [2], the Activity is reported as 2 log10CFU/ml. Besides, the MIC in the assay on Staphylococcus aureus [3] is 3.12 µg/mL (≈ 13 µM); with Staphylococcus aureus [4], 1.56 µg/mL (≈ 6.49 µM); with Escherichia coli it was more than 100 µg/mL; against Bacillus cereus [5], 12.5 µg/mL (≈ 52 µM); in the assay on Staphylococcus aureus [10] it was 3.12 µg/mL (≈ 13 µM). Moreover, the result with Staphylococcus aureus [11], in the assay with Staphylococcus aureus [12], in the assay on Staphylococcus aureus [15] and in the assay on Staphylococcus aureus [16] was Active. Also, the MBC in the assay with Staphylococcus aureus [6] stood at 6.25 µg/mL (≈ 26 µM); with Staphylococcus aureus [7], 3.12 µg/mL (≈ 13 µM); against Bacillus cereus [13] it was 25 µg/mL (≈ 104 µM); in the assay on Staphylococcus aureus [9], 6.25 µg/mL (≈ 26 µM). Further, the “inhibition (INH)” value in the assay on Staphylococcus aureus [8] is on record as 99%; in the assay on Staphylococcus aureus [14], 100%.

Take `COc1cc(O)c(C(=O)CC(C)C)c2c1[C@]1(O)C(O)=C(C(=O)C(C)C)C(=O)C[C@]1(OC)O2`: the Activity in the assay with Staphylococcus aureus [2] is given as 2 log10CFU/ml. Moreover, the MIC against Staphylococcus aureus [3] was 25 µg/mL (≈ 55.7 µM); with Staphylococcus aureus [4], 3.12 µg/mL (≈ 6.96 µM); in the assay on Escherichia coli, more than 100 µg/mL; with Bacillus cereus [5], 25 µg/mL (≈ 55.7 µM); in the assay on Staphylococcus aureus [10] it was 3.12 µg/mL (≈ 6.96 µM). Also, the result with Staphylococcus aureus [11], with Staphylococcus aureus [12], with Staphylococcus aureus [17], with Staphylococcus aureus [15] and with Staphylococcus aureus [16] was Active. In addition, the minimal bactericidal concentration (MBC) with Staphylococcus aureus [6] was determined as 6.25 µg/mL (≈ 13.9 µM); in the assay on Staphylococcus aureus [7] it was 6.25 µg/mL (≈ 13.9 µM); in the assay on Bacillus cereus [13], 50 µg/mL (≈ 111 µM); in the assay with Staphylococcus aureus [9] it was 50 µg/mL (≈ 111 µM). Moreover, the “inhibition (INH)” value worked out at 99% in the assay on Staphylococcus aureus [8] and 100% with Staphylococcus aureus [14].
